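Following 48 hours of exposure in 96-well plates, responses at five concentrations were used to interpolate endpoints linearly. GI50 is the concentration that inhibits growth by half.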 The source made the active and inactive calls. No stated cut-off is given here; in the data, active = GI50 up to about 1.1 µM and inactive = higher.
Assays:
Assay in all cases: inhibition of tumour cell growth, NCI panel, 48 h
U-251 = tested on: U-251
SF-539 = tested on: SF-539
SW-620 = tested on: SW-620
LOX IMVI = tested on: LOX IMVI
HCC 2998 = tested on: HCC 2998
Malme-3M = tested on: Malme-3M
SK-OV-3 = tested on: SK-OV-3
OVCAR-5 = tested on: OVCAR-5
SK-MEL-2 = tested on: SK-MEL-2
SNB-75 = tested on: SNB-75
IGROV-1 = tested on: IGROV-1
NCI-H226 = tested on: NCI-H226
UO-31 = tested on: UO-31
DLD-1 = tested on: DLD-1
UACC-62 = tested on: UACC-62
ACHN = tested on: ACHN
HOP-62 = tested on: HOP-62

Measured: GI50

CC1(C)C(=O)C(=Cc2ccco2)C1=O
inactive: U-251 > 100 µM | SF-539 > 100 µM | SW-620 > 100 µM | LOX IMVI > 100 µM | HCC 2998 > 100 µM | Malme-3M > 100 µM | SK-OV-3 > 100 µM | OVCAR-5 > 100 µM | SK-MEL-2 > 100 µM | SNB-75 > 100 µM | IGROV-1 > 100 µM | NCI-H226 > 100 µM | UO-31 > 100 µM | DLD-1 > 100 µM | UACC-62 > 100 µM | ACHN > 100 µM

O=C(NC1C2CC3CC(C2)CC1C3)/C(Cl)=C1/Sc2ccccc2NC1=O (stereo not drawn)
inactive: U-251 > 100 µM | SF-539 > 100 µM | HOP-62 > 100 µM | SW-620 > 100 µM | LOX IMVI 99.3 µM | HCC 2998 > 80 µM | Malme-3M > 100 µM | OVCAR-5 > 100 µM | SNB-75 97.9 µM | IGROV-1 > 100 µM | NCI-H226 > 100 µM | UO-31 58.9 µM | DLD-1 > 100 µM | UACC-62 > 89.5 µM | ACHN > 95.9 µM

N#Cc1c(C[n+]2ccccc2)c2ccccc2oc1=O
inactive: U-251 > 100 µM | SF-539 > 100 µM | HOP-62 > 100 µM | SW-620 > 100 µM | LOX IMVI > 100 µM | HCC 2998 > 100 µM | Malme-3M > 100 µM | SK-OV-3 > 100 µM | OVCAR-5 > 100 µM | SK-MEL-2 > 100 µM | SNB-75 > 100 µM | IGROV-1 > 100 µM | NCI-H226 > 100 µM | UO-31 > 100 µM | DLD-1 > 100 µM | UACC-62 > 100 µM | ACHN > 100 µM

Cc1cc2nc3c(C(OC4OC(CO)C(O)C(O)C4O)C(O)CO)nn(-c4ccc(F)cc4)c3nc2cc1C (stereo not drawn)
inactive: U-251 > 100 µM | SF-539 > 100 µM | HOP-62 > 100 µM | LOX IMVI > 100 µM | HCC 2998 > 100 µM | Malme-3M > 100 µM | SK-OV-3 > 100 µM | OVCAR-5 > 100 µM | SNB-75 80.7 µM | UO-31 > 100 µM | DLD-1 > 100 µM | UACC-62 > 100 µM | ACHN > 100 µM

Cc1cc([N+](=O)[O-])ccc1Sc1c2ccccc2nc2cc(Cl)ccc12
inactive: U-251 27.8 µM | SF-539 25.9 µM | HOP-62 73.5 µM | SW-620 31.2 µM | LOX IMVI 24.9 µM | HCC 2998 > 100 µM | Malme-3M > 100 µM | SK-OV-3 47.2 µM | OVCAR-5 56.2 µM | SK-MEL-2 22.9 µM | SNB-75 30.8 µM | IGROV-1 46.2 µM | NCI-H226 61.5 µM | UO-31 45.2 µM | DLD-1 36.3 µM | UACC-62 34.5 µM | ACHN 44.9 µM

Cc1nc2ccccc2c(=O)n1-c1ccccc1I
inactive: U-251 > 100 µM | HOP-62 > 100 µM | SW-620 > 100 µM | HCC 2998 > 100 µM | Malme-3M > 100 µM | SK-OV-3 > 100 µM | OVCAR-5 > 100 µM | SK-MEL-2 > 100 µM | SNB-75 46.2 µM | IGROV-1 > 100 µM | NCI-H226 > 100 µM | UO-31 90.2 µM | DLD-1 > 100 µM | UACC-62 > 100 µM | ACHN > 100 µM

O=C(c1ccccc1)C1(Br)S(=O)(=O)OCCOS1(=O)=O
inactive: U-251 > 100 µM | SF-539 > 100 µM | HOP-62 > 100 µM | SW-620 > 100 µM | LOX IMVI > 100 µM | HCC 2998 > 100 µM | Malme-3M > 100 µM | SK-OV-3 > 100 µM | OVCAR-5 > 100 µM | SK-MEL-2 > 100 µM | SNB-75 > 100 µM | IGROV-1 > 100 µM | NCI-H226 > 100 µM | UO-31 > 100 µM | DLD-1 > 100 µM | UACC-62 > 100 µM | ACHN > 100 µM

CCOC(=O)C(=O)Nc1c(C)cccc1C
inactive: U-251 > 100 µM | SF-539 > 100 µM | HOP-62 > 100 µM | SW-620 > 100 µM | LOX IMVI > 100 µM | HCC 2998 > 100 µM | Malme-3M > 100 µM | SK-OV-3 > 100 µM | OVCAR-5 > 100 µM | SK-MEL-2 > 100 µM | SNB-75 > 100 µM | IGROV-1 > 100 µM | NCI-H226 > 100 µM | UO-31 > 100 µM | DLD-1 > 100 µM | UACC-62 > 100 µM | ACHN > 100 µM

CC1=C(c2nc3ccccc3s2)C(=O)OC1(C)C
inactive: U-251 > 100 µM | SF-539 > 100 µM | HOP-62 > 100 µM | SW-620 > 100 µM | LOX IMVI > 100 µM | HCC 2998 > 100 µM | Malme-3M > 100 µM | SK-OV-3 > 100 µM | OVCAR-5 > 100 µM | SK-MEL-2 > 100 µM | SNB-75 86.5 µM | NCI-H226 > 100 µM | UO-31 > 100 µM | DLD-1 > 100 µM | UACC-62 > 100 µM | ACHN > 100 µM

From ChEMBL document CHEMBL1201862, “PubChem BioAssay data set” (2004)
